Common to all, as to test: Bliss excess, mean over the matrix (fraction); higher = more synergy
Test [1] has as its system KP-1N (Pancreatic Carcinoma). A digest of the protocol: (§1)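 After 24 hours at 37°C and 5% CO2 in 1536-well plates, cells in DMEM/F12 or RPMI plus 10% FBS received two-drug dose matrices for 72 hours. Viability came from CellTiter-Glo 2.0 luminescence and was scaled as inhibition, anchored at 0 by vehicle wells and at 1 by blank wells. Combination Emax is taken as the second-highest inhibition in the matrix, and Bliss excess as the observed combination effect less EA + EB − EA·EB, with EA and EB the single-agent effects.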

The subject of test [2] is OVCA420 (Ovarian Carcinoma). A digest of the protocol: as §1
Test [3] concerns HCC-78 (Lung Adenocarcinoma). A digest of the protocol:
as §1

The subject of test [4] is NB10 (Neuroblastoma). A digest of the protocol: as §1
The test system of test [5] is UM-UC-3 (Bladder Carcinoma). A digest of the protocol: as §1
In test [6] the test system is EC-GI-10 (Esophageal Squamous Cell Carcinoma). A digest of the protocol:
as §1

Test [7] deals with CCRF-CEM (T-Lymphoblastic Leukemia). A digest of the protocol: as §1
Test [8] concerns DEL (T-Cell Non-Hodgkin's Lymphoma). A digest of the protocol:
as §1

The subject of test [9] is CaR-1 (Colorectal Carcinoma). A digest of the protocol: as §1
The subject of test [10] is NCI-H82 (Small Cell Lung Carcinoma). A digest of the protocol:
as §1

Test [11] has as its system KELLY (Neuroblastoma). A digest of the protocol:
as §1

Test [12] concerns HOS (Osteosarcoma). A digest of the protocol: as §1
In test [13] the test system is TE-9 (Esophageal Squamous Cell Carcinoma). A digest of the protocol:
as §1

Test [14] concerns COLO-205 (Colorectal Carcinoma). A digest of the protocol: as §1
Test [15] concerns TE-15 (Esophageal Squamous Cell Carcinoma). A digest of the protocol:
as §1

Test [16] deals with LS-180 (Colorectal Carcinoma). A digest of the protocol: as §1
In test [17] the test system is RO82-W-1 (Thyroid Gland Carcinoma). A digest of the protocol: as §1
For test [18], the system named is TCCSUP (Bladder Carcinoma). A digest of the protocol: as §1
For test [19], the system named is LB831-BLC (Bladder Carcinoma). A digest of the protocol: as §1

As for `CCN(CCO)CCCOc1ccc2c(Nc3cc(CC(=O)Nc4cccc(F)c4)[nH]n3)ncnc2c1` [AZD2811] + O=C(c1cc(Cc2n[nH]c(=O)c3ccccc23)ccc1F)N1CCN(C(=O)C2CC2)CC1 [Olaparib] (first compound max 1 µM, 7x7, partner max 10 µM), the Bliss excess is -0.0175 in test [1]; 0.0008 in test [2]; 0.0013 in test [3]; -0.0445 in [4]; 0.0332 in test [5]; 0.0377 in [6]. Besides, the Bliss excess was -0.0134 in [7]; 0.0328 in [8]; 0.0213 in test [9]; 0.022 in [10]; -0.0359 in test [11]; -0.0188 in [12]. Moreover, the Bliss excess in [13] was -0.0111; in test [14] it was 0.0075; in test [15], -0.0125; in test [16] it was 0.0636; in test [17] it was -0.0564; in [18], 0.0238. In addition, in [19], the Bliss excess turned out to be 0.0083.
As to `C=CCn1c(=O)c2cnc(Nc3ccc(N4CCN(C)CC4)cc3)nc2n1-c1cccc(C(C)(C)O)n1` [AZD1775] + C[C@@H]1COCCN1C2=NC(=NC(=C2)C3(CC3)[S@](=N)(=O)C)C4=C5C=CNC5=NC=C4 [AZD6738] (first compound max 1 µM, partner max 10 µM), the Bliss excess in test [1] was 0.0055; in [2], 0.0441; in test [3], 0.0101; in test [4], 0.0822; in [5], 0.0606; in test [6] it was 0.0535. For the same compound, the Bliss excess in [7] was 0.0391; in test [8] it was 0.0252; in [9], 0.0177; in test [11] it was -0.0161; in test [12] it was 0.106; in test [13] it was 0.0638. Moreover, the Bliss excess was 0.141 in test [14]; -0.0076 in [15]; -0.0098 in test [16]; -0.0916 in test [17]; 0.0305 in test [18]; 0.0042 in test [19].
On to `COc1cc2c(cc1OCCCCCOc1cc3c(cc1OC)C(=O)N1C=C(C)C[C@H]1C=N3)N=C[C@@H]1CC(C)=CN1C2=O` [SG3199] + O=C(c1cc(Cc2n[nH]c(=O)c3ccccc23)ccc1F)N1CCN(C(=O)C2CC2)CC1 [Olaparib] (first compound max 0.001 µM, 7x7, partner max 10 µM), for which the Bliss excess in test [1] was 0.0163; in test [2] it was -0.0268; in test [3] it was -0.0294; in [4], -0.0067; in test [5], -0.0308; in [6], -0.011. The Bliss excess is -0.0045 in test [7]; 0.0108 in test [8]; -0.0429 in test [9]; -0.0075 in test [10]; 0.0142 in test [11]; -0.0232 in test [12]. Moreover, the Bliss excess in test [13] is -0.0269; in test [14], -0.0256; in test [15], -0.0307; in [16], -0.0525; in [17], -0.0704; in test [18], -0.0281. Also, the Bliss excess in test [19] was -0.0486.
As to `COc1cccc(OCCCN)c1-c1cc(Nc2cnc(C#N)cn2)n[nH]1` [Prexasertib] + CN(C)CCCOc1ccc(-c2ccc3ncc4c(c3c2)n(C2CCOCC2)c(=O)n4C)cn1 [AZD0156] (first compound max 1 µM, 7x7, partner max 1 µM), the Bliss excess is 0.0236 in [1]; -0.0279 in [2]; -0.0463 in test [3]; 0.015 in test [4]; -0.0174 in test [5]; -0.0056 in [6]. Moreover, the Bliss excess in test [7] was -0.058; in test [8] it was -0.0201; in [9], -0.0442; in test [10], 0.0117; in test [11], 0.0113; in [12], -0.0434. Besides, the Bliss excess in [13] was -0.0307; in [14], 0.061; in test [15], -0.0346; in [16], -0.0605; in test [17], -0.0684; in test [18] it was -0.0021. For the same compound, the Bliss excess in test [19] worked out at 0.0252.
For the compound `Cc1cc2ncnn2cc1Nc1ncc2c(n1)n(C1CCOCC1)c(=O)n2C` [AZD7648] + O=C(c1cc(Cc2n[nH]c(=O)c3ccccc23)ccc1F)N1CCN(C(=O)C2CC2)CC1 [Olaparib] (first compound max 10 µM, 7x7, partner max 10 µM), the Bliss excess in [1] was 0.0211; in test [2] it was -0.035; in [3], -0.0133; in test [4], -0.0102; in test [5] it was -0.0297; in test [6], -0.0478. Also, the Bliss excess was -0.0213 in [7]; 0.0174 in test [8]; -0.0399 in test [9]; -0.0382 in test [10]; -0.0241 in [11]; 0.0023 in test [12]. Besides, the Bliss excess in test [13] is -0.0264; in [14], -0.0345; in test [15], -0.0399; in test [16], -0.0896; in test [17], -0.0639; in test [18] it was -0.0465. Also, the Bliss excess in test [19] was 0.0067.
As to `Cc1cc2ncnn2cc1Nc1ncc2c(n1)n(C1CCOCC1)c(=O)n2C` [AZD7648] + CCN(CCO)CCCOc1ccc2c(Nc3cc(CC(=O)Nc4cccc(F)c4)[nH]n3)ncnc2c1 [AZD2811] (first compound max 10 µM, 7x7, partner max 1 µM), the Bliss excess was -0.02 in test [1]; -0.0057 in test [2]; -0.014 in test [3]; 0.0524 in test [4]; 0.001 in [5]; 0.0846 in [6]. For the same compound, the Bliss excess is -0.0396 in test [7]; 0.0547 in [8]; -0.0102 in [9]; 0.0981 in test [10]; 0.0518 in [11]; 0.0182 in test [12]. Also, the Bliss excess is -0.0002 in test [13]; -0.0303 in [14]; -0.0213 in test [15]; 0.0165 in [16]; -0.115 in [17]; 0.0258 in test [18]. Also, the Bliss excess in test [19] was -0.0477.
In the case of `CS(=O)(=O)CCNCc1ccc(-c2ccc3ncnc(Nc4ccc(OCc5cccc(F)c5)c(Cl)c4)c3c2)o1` [Lapatinib] + NC1(c2ccc(-c3nc4ccn5c(=O)[nH]nc5c4cc3-c3ccccc3)cc2)CCC1 [MK-2206] (first compound max 10 µM, 7x7, partner max 10 µM), the Bliss excess in test [2] is 0.0085; in test [3], -0.0464; in test [4] it was -0.0423; in test [5], -0.0065; in test [7] it was 0.026; in test [9], -0.0032. Besides, the Bliss excess is -0.0176 in [10]; 0.0098 in test [11]; -0.0218 in test [12]; -0.0208 in test [13]; -0.0202 in test [15]; 0.0501 in test [16]. For the same compound, the Bliss excess in test [17] is -0.0165; in [19] it was -0.0044.
On to `CCc1c2c(nc3ccc(O)cc13)-c1cc3c(c(=O)n1C2)COC(=O)[C@]3(O)CC` [SN-38] + O=C(c1cc(Cc2n[nH]c(=O)c3ccccc23)ccc1F)N1CCN(C(=O)C2CC2)CC1 [Olaparib] (first compound max 0.3 µM, 7x7, partner max 10 µM), for which the Bliss excess is 0.0647 in test [1]; 0.0106 in [3]; -0.0154 in test [4]; 0.0493 in [5]; 0.0463 in test [7]; 0.0923 in test [8]. Also, the Bliss excess in test [9] was 0.0221; in test [10] it was -0.0065; in test [11] it was 0.0404; in test [12], 0.0819; in [13], 0.0419; in test [14] it was 0.0491. Also, the Bliss excess was 0.0207 in test [15]; 0.064 in test [16]; -0.0448 in test [17]; 0.0883 in [18]; 0.0617 in test [19].

Values taken from the supplement of paper PMC11061612.
